From patent US20040106626A1, “6-Membered unsaturated heterocyclic compounds useful for selective inhibition of the coagulation cascade” (Pharmacia Corporation, priority 2001, published 2004)

How the values were obtained:
Type in all cases: biochemical
[1] = test system: Normal human pooled plasma; assay: Prothrombin time (PT) clotting assay; details: concentration at which prothrombin time is prolonged by 2x normal, reported as less than or greater than 50 uM
Method: The prothrombin time (PT) assay is a clotting assay that is used to determine deficiencies of clotting factor activity in the extrinsic pathway. The assay measures time to clotting after the addition of thromboplastin (human tissue factor). Normal human pooled plasma is incubated with 100 uM compound or saline in a coagulation machine. Thromboplastin is added and time to clotting is measured. Compounds with greater than 3×normal PT of 11.0 seconds are further analyzed by concentration response to determine at what concentration the prothrombin time is prolonged by 2×normal.

[2] = biological target: T1, Human factor Xa (Homo sapiens, UniProt P00742); assay: Xa assay (chromogenic substrate S-2765); details: reported only as less than or greater than 30 uM; read-out: Factor Xa (II) IC50
T1 construct: purchased Enzyme Research Laboratories, South Bend Ind
T1 sequence (P00742 235-488 limits assumed): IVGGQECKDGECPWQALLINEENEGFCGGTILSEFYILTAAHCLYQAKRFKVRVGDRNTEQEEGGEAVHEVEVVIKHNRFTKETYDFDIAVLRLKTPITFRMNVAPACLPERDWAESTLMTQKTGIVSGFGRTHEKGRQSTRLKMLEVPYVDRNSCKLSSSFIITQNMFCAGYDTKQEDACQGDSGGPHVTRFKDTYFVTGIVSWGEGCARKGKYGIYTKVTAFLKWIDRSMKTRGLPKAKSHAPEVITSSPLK
T1 sequence (P00742 41-179 limits assumed): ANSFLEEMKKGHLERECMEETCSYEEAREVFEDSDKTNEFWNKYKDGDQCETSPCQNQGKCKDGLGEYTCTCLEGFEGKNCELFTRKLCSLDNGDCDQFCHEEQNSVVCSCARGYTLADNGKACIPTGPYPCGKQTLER
Method: Human factor Xa (0.3 nM) and 0.15 mM -a-Benzyloxycarbonyl-D-arginyl-L-glycyl-L-arginine-p-nitroaniline-dihydrochloride (S-2765) are added to a 96-well assay plate containing either inhibitor or buffer (50 mM Tris-HCl, pH 8.0, 100 mM NaCl, 0.1% BSA). The reaction, in a final volume of 100 ul is measured immediately at 405 nm to determine background absorbance. The plate is incubated at room temperature for 60 min, at which time the rate of hydrolysis of the substrate is measured by monitoring the reaction at 405 nm for the release of p-nitroaniline. Percent inhibition of Xa activity is calculated from OD405 nm value from the experimental and control sample.
Recombinant soluble TF, consisting of amino acids 1-219 of the mature protein sequence was expressed in E. coli and purified using a Mono Q Sepharose FPLC. Recombinant human VIIa was purchased from American Diagnostica, Greenwich CT and chromogenic substrate N-methylsulfonyl-D-phe-gly-arg-p-nitroaniline was prepared by American Peptide Company, Inc., Sunnyvale, Calif. Factor Xa was obtained from Enzyme Research Laboratories, South Bend Ind., thrombin from Calbiochem, La Jolla, Calif., and trypsin and L-BAPNA from Sigma, St. Louis Mo. The chromogenic substrates S-2765 and S-2238 were purchased from Chromogenix, Sweden.

[3] = biological target: T2, recombinant soluble tissue factor and recombinant human factor VIIa (TF-VIIa) (Homo sapiens, UniProt P08709); assay: TF-VIIa assay (chromogenic substrate hydrolysis); details: reported only as less than or greater than 0.1 uM
T2 construct: conversion of coagulation factor VII to VIIa by factor Xa; purchased American Diagnostica, Greenwich CT; host or cells: soluble TF made in house in E. coli
T2 sequence (P08709 213-466 limits assumed): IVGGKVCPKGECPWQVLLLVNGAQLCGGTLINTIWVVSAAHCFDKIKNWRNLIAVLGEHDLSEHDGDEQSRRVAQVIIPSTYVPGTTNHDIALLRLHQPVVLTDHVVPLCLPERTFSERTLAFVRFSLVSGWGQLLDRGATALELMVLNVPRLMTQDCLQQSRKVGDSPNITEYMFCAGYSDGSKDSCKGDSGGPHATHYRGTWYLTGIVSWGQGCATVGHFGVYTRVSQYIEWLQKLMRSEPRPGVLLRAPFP
T2 sequence (P08709 61-212 limits assumed): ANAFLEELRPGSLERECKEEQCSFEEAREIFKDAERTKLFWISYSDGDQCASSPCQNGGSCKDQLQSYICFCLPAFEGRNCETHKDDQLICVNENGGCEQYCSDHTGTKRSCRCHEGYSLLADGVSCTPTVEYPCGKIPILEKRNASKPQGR
T2 sequence (P13726 33-251 partner limits assumed): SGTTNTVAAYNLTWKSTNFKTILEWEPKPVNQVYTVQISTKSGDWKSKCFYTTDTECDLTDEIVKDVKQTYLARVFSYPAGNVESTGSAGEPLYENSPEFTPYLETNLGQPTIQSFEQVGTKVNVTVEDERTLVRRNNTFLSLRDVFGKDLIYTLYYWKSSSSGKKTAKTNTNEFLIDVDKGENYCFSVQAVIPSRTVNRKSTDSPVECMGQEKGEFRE
Method: In this assay 100 nM recombinant soluble tissue factor and 2 nM recombinant human factor VIIa are added to a 96-well assay plate containing 0.4 mM of the substrate, N-methylsulfonyl-D-phe-gly-arg-p-nitroaniline and either inhibitor or buffer (5 mM CaCl2, 50 mM Tris-HCl, pH 8.0, 100 mM NaCl, 0.1% BSA). […] Percent inhibition of TF-VIIa activity is calculated from OD405 nm value from the experimental and control sample.
(§1) Recombinant human VIIa was purchased from American Diagnostica, Greenwich CT and chromogenic substrate N-methylsulfonyl-D-phe-gly-arg-p-nitroaniline was prepared by American Peptide Company, Inc., Sunnyvale, Calif. Factor Xa was obtained from Enzyme Research Laboratories, South Bend Ind., thrombin from Calbiochem, La Jolla, Calif., and trypsin and L-BAPNA from Sigma, St. Louis Mo.

[4] = biological target: T3, Human thrombin (Homo sapiens, UniProt P00734); assay: Thrombin assay (chromogenic substrate); details: reported only as less than or greater than 30 uM; read-out: Thrombin (II) IC50
T3 construct: converts prothrombin (II) to thrombin (IIa); purchased Calbiochem, La Jolla, Calif
Method: Percent inhibition of thrombin activity is calculated from OD405 nm value from the experimental and control sample.
as §1

SMILES	PT (Prothrombin time) 2xPT [1]	IC50 [2]	IC50 [3]	IC50 [4]
CC(C)Nc1ncc(-c2cc(N)cc(C(=O)O)c2)n(CC(=O)NCc2ccc(C(=N)N)cc2)c1=O [Example 16, 3-amino-5-[1-[2-({4-[amino(imino)methyl]benzyl}amino)-2-oxoethyl]-5-(isopropylamino)-6-oxo-1,6-dihydropyrazin-2-yl]benzoic Acid Trifluoracetate]	<50.0 µM	–	–	–
CC(C)Nc1ncc(-c2cc(N)cc(C(=O)NCc3cccc(F)c3)c2)n(CC(=O)NCc2ccc(C(=N)N)cc2)c1=O.O=C(O)C(F)(F)F.O=C(O)C(F)(F)F [Example 29]	<50.0 µM	–	–	–
CC(C)Nc1ncc(-c2cc(N)cc(F)c2)n(CC(=O)NCc2ccc(C(=N)N)cc2)c1=O [Example 52]	–	> 30 µM	< 0.1 µM	< 30 µM
CC(C)NC(=O)c1cc(N)cc(-c2cnc(NC(C)C)c(=O)n2CC(=O)NCc2ccc(C(=N)N)cc2)c1 [Example 60]	–	> 30 µM	< 0.1 µM	< 30 µM
CC(C)Nc1ncc(-c2cc(N)cc(-c3ccccc3)c2)n(CC(=O)NCc2ccc(C(=N)N)cc2)c1=O [Example 69, 2-[6-(5-amino-1,1′-biphenyl-3-yl)-3-(isopropylamino)-2-oxopyrazin-1 (2H)-yl]-N-{4-[amino(imino)methyl]benzyl}acetamide]	–	> 30 µM	< 0.1 µM	> 30 µM
CC(C)Nc1ncc(-c2cc(N)cc(C(F)(F)F)c2)n(CC(=O)NCc2ccc(C(=N)N)c(O)c2F)c1=O [Example 97]	–	> 30 µM	> 0.1 µM	> 30 µM
CCC(C)NC(=O)c1cc(N)cc(-c2cnc(NC(C)C)c(=O)n2CC(=O)NCc2ccc(C(=N)N)c(O)c2)c1 (stereo not shown) [Example 115]	<50.0 µM	–	< 0.1 µM	–
CC(C)Nc1ncc(-c2cc(N)cc(N)c2)n(CC(=O)NCc2cc(O)c(C(=N)N)c(F)c2)c1=O.O=C(O)C(F)(F)F [Example 117]	<50.0 µM	–	–	–
CC(C)Nc1ncc(-c2cc(N)cc(C(F)(F)F)c2)n(CC(=O)NCc2c(F)c(O)c(C(=N)N)c(F)c2F)c1=O [Example 126]	–	> 30 µM	< 0.1 µM	< 30 µM
CC(C)Nc1ncc(-c2cc(N)cc(NC(=O)C(C)(C)C)c2)n(CC(=O)NCc2ccc(C(=N)N)cc2)c1=O [Example 132]	–	> 30 µM	< 0.1 µM	< 30 µM
CCCCCC(C)C(=O)Nc1cc(N)cc(-c2cnc(NC(C)C)c(=O)n2CC(=O)NCc2ccc(C(=N)N)cc2)c1 (stereo not shown) [Example 138]	–	> 30 µM	< 0.1 µM	< 30 µM
CCCCNc1cc(N)cc(-c2cnc(NC(C)C)c(=O)n2CC(=O)NCc2ccc(C(=N)N)cc2)c1.O=C(O)C(F)(F)F.O=C(O)C(F)(F)F [Example 145]	<50.0 µM	–	< 0.1 µM	–
CC(C)Nc1ncc(-c2cc(N)cc(NCC3CCNCC3)c2)n(CC(=O)NCc2ccc(C(=N)N)cc2)c1=O.O=C(O)C(F)(F)F.O=C(O)C(F)(F)F [Example 146]	<50.0 µM	–	< 0.1 µM	–
CC(C)Nc1ncc(-c2cc(N)cc(NCC3CCCNC3)c2)n(CC(=O)NCc2ccc(C(=N)N)cc2)c1=O.O=C(O)C(F)(F)F.O=C(O)C(F)(F)F (stereo not shown) [Example 147]	<50.0 µM	–	< 0.1 µM	–
CC(C)Nc1ncc(-c2cc(N)cc(NC3CCCC3)c2)n(CC(=O)NCc2ccc(C(=N)N)cc2)c1=O.O=C(O)C(F)(F)F.O=C(O)C(F)(F)F [Example 148]	<50.0 µM	–	< 0.1 µM	–
CC(C)Nc1ncc(-c2cc(N)cc(NCC(C)(C)C)c2)n(CC(=O)NCc2ccc(C(=N)N)cc2)c1=O.O=C(O)C(F)(F)F.O=C(O)C(F)(F)F [Example 152]	<50.0 µM	–	–	–

SMILES	PT (Prothrombin time) 2xPT [1]	IC50 [2]	IC50 [3]	IC50 [4]
CC(C)Nc1ncc(-c2cc(N)cc(NCCC(C)(C)C)c2)n(CC(=O)NCc2ccc(C(=N)N)cc2)c1=O.O=C(O)C(F)(F)F.O=C(O)C(F)(F)F [Example 153]	<50.0 µM	–	–	–
CC(C)Nc1ncc(-c2cc(N)cc(C(F)(F)F)c2)n(CC(=O)NCc2ccc(C(=N)N)c(F)c2)c1=O.Cl [Example 154, N-{4-[amino(imino)methyl]-3-fluorobenzyl}-2-[6-[3-amino-5-(trifluoromethyl)phenyl]-3-(isopropylamino)-2-oxopyrazin-1 (2H)-yl]acetamide]	>50.0 µM	–	–	–
COc1cc(N)cc(-c2cnc(NC(C)C)c(=O)n2CC(=O)NCc2cc(O)c(C(=N)N)c(F)c2)c1 [Example 168]	–	> 30 µM	> 0.1 µM	> 30 µM
CC[C@H](C)NC(=O)c1cc(N)cc(-c2cnc(NC(C)C)c(=O)n2CC(=O)NCc2ccc(C(=N)N)c(O)c2F)c1 [Example 173]	–	> 30 µM	< 0.1 µM	> 30 µM
CC(C)Nc1ncc(-c2cc(N)cc(O)c2)n(CC(=O)NCc2cc(O)c(C(=N)N)c(F)c2)c1=O [Example 180]	–	> 30 µM	> 0.1 µM	> 30 µM
CC[C@H](C)NC(=O)c1cc(N)cc(-c2cnc(NC3CC3)c(=O)n2CC(=O)NCc2ccc(C(=N)N)cc2)c1 [Example 183]	–	> 30 µM	< 0.1 µM	< 30 µM
CC[C@H](C)NC(=O)c1cc(N)cc(-c2cnc(NC(C)C)c(=O)n2CC(=O)NCc2c(OC)cc(C(=N)N)cc2OC)c1 [Example 196]	–	> 30 µM	> 0.1 µM	> 30 µM
CC[C@@H](C)NC(=O)c1cc(N)cc(-c2cnc(NC(C)C)c(=O)n2CC(=O)NCc2c(OC)cc(C(=N)N)cc2OC)c1 [Example 197]	–	> 30 µM	> 0.1 µM	> 30 µM
COCCOCCOCCOC(=O)c1cc(N)cc(-c2cnc(NC(C)C)c(=O)n2CC(=O)NCc2ccc(C(=N)N)cc2)c1 [Example 200]	–	> 30 µM	< 0.1 µM	> 30 µM
COCCOCCOCCOCCOCCOCCOC(=O)c1cc(N)cc(-c2cnc(NC(C)C)c(=O)n2CC(=O)NCc2ccc(C(=N)N)cc2)c1 [Example 201]	–	> 30 µM	< 0.1 µM	> 30 µM
CC[C@H](C)NC(=O)c1cc(N)cc(-c2cnc(N[C@@H](C)CO)c(=O)n2CC(=O)NCc2ccc(C(=N)N)cc2)c1 [Example 208]	–	> 30 µM	< 0.1 µM	< 30 µM
CC(C)Nc1ncc(-c2cc(N)cc(OC(C)C(=O)O)c2)n(CC(=O)NCc2ccc(C(=N)N)cc2)c1=O (stereo not shown) [Example 226]	–	> 30 µM	< 0.1 µM	> 30 µM
CC[C@H](C)NC(=O)c1cc(N)cc(-c2cnc(NC(C)C)c(=O)n2CC(=O)NCc2c(O)cc(C(=N)N)cc2OCc2ccccc2)c1 [Example 242]	–	> 30 µM	< 0.1 µM	> 30 µM
CC[C@@H](C)NC(=O)c1cc(N)cc(-c2cnc(NC(C)(C)C)c(=O)n2CC(=O)NCc2ccc(C(=N)N)cc2)c1 [Example 256, 3-amino-5-[1-[2-({4-[amino(imino)methyl]benzyl}amino)-2-oxoethyl]-5-(tert-butylamino)-6-oxo-1,6-dihydropyrazin-2-yl]-N-[(lR)-1-methylpropyl]benzamide bis(trifluoroacetate)]	–	> 30 µM	< 0.1 µM	< 30 µM
CC[C@H](C)NC(=O)c1cc(N)cc(-c2cnc(NC)c(=O)n2CC(=O)NCc2ccc(C(=N)N)cc2)c1 [Example 257]	–	> 30 µM	< 0.1 µM	> 30 µM
CC[C@@H](C)NC(=O)c1cc(N)cc(-c2cnc(NC3CC3)c(=O)n2CC(=O)NCc2ccc(C(=N)N)cc2)c1 [Example 258]	–	> 30 µM	< 0.1 µM	< 30 µM
